Laboratory results taken from article PMC8121435, “Cork-in-bottle mechanism of inhibitor binding to mammalian complex I” (Science Advances, 2021).
Values joined by “and” are separate entries in the source; they are usually repeats but may differ in a detail not shown here. Equal entries are not always repeated.

How the values were obtained:
Assay type in all cases: biochemical
[1] = test system: complex I; experiment: NADH:ubiquinone-1 oxidoreduction in the presence of inhibitor; conditions: 200 μM ubiquinone-1
Experimental: (§1) All catalytic activity assays were conducted at 32°C in 96-well plates using a Molecular Devices Spectramax 384 plus plate reader. Catalysis was initiated by addition of 200 μM NADH and monitored at 340 and 380 nm (ε340–380 = 4.81 mM^−1 cm^−1). Linear rates were measured for all assays, inhibitors were added from dimethyl sulfoxide stock solutions as required, and inhibitor-insensitive rates (using either 1 μM piericidin A or 1.4 μM IACS-2858) were subtracted from each measured rate. Membrane samples were prepared as described previously ([17], [20], [59], [60]), diluted to 20 μg ml^−1 in 10 mM tris-SO4 (pH 7.5) and 250 mM sucrose, and supplemented with 3 μM horse heart cytochrome c (except for P. denitrificans, for which the activity is unaffected by the addition). Mouse, bovine, and yeast (Y. lipolytica) complex I were purified as described previously ([17], [20], [59]); diluted to 0.5 nM in 20 mM tris-HCl (pH 7.5), 0.15% asolectin, and 0.15% CHAPS; and assayed using either 200 μM dQ or 200 μM ubiquinone-1 (Sigma-Aldrich). Complex I was purified from P. denitrificans strain Pd1222 ([61]) and provided by O. D. Jarman (MRC Mitochondrial Biology Unit, University of Cambridge); it was assayed likewise but in 10 mM MES-HCl (pH 6.5), 25 mM NaCl, and 2 mM CaCl2. […]

[2] = target: T1, mouse complex I (Mus musculus, UniProt P03888+Q91WD5+Q9DC70); experiment: NADH:decylubiquinone oxidoreduction by purified mouse complex I; conditions: purified mouse complex I ~0.5 nM, 200 μM dQ, 200 μM NADH, 32°C; Hill slope constrained to −1; ± SE
T1 construct: from tissue; host or cells: mouse (C57BL/6) heart mitochondria
Experimental: (§2) All catalytic activity assays were conducted at 32°C in 96-well plates using a Molecular Devices Spectramax 384 plus plate reader. Catalysis was initiated by addition of 200 μM NADH and monitored at 340 and 380 nm (ε340–380 = 4.81 mM^−1 cm^−1). Linear rates were measured for all assays, inhibitors were added from dimethyl sulfoxide stock solutions as required, and inhibitor-insensitive rates (using either 1 μM piericidin A or 1.4 μM IACS-2858) were subtracted from each measured rate. Membrane samples were prepared as described previously ([17], [20], [59], [60]), diluted to 20 μg ml^−1 in 10 mM tris-SO4 (pH 7.5) and 250 mM sucrose, and supplemented with 3 μM horse heart cytochrome c (except for P. denitrificans, for which the activity is unaffected by the addition). Mouse, bovine, and yeast (Y. lipolytica) complex I were purified as described previously ([17], [20], [59]); diluted to 0.5 nM in 20 mM tris-HCl (pH 7.5), 0.15% asolectin, and 0.15% CHAPS; and assayed using either 200 μM dQ or 200 μM ubiquinone-1 (Sigma-Aldrich). Complex I was purified from P. denitrificans strain Pd1222 ([61]) and provided by O. D. Jarman (MRC Mitochondrial Biology Unit, University of Cambridge); it was assayed likewise but in 10 mM MES-HCl (pH 6.5), 25 mM NaCl, and 2 mM CaCl2. Bovine SMPs were prepared as described previously ([61]) and diluted to 20 μg ml^−1 in 10 mM tris-SO4 (pH 7.5) and 250 mM sucrose for FET and RET assays. The RET assay was initiated using 1 mM NAD^+, 1 mM ATP, 10 mM succinate, 1 mM cyanide, and 2 mM MgSO4, in the absence of NADH. AOX from Trypanosoma brucei brucei was prepared as described previously ([23]). Complex I proteoliposomes were assayed using 10 mM Mops-KOH (pH 7.5), 50 mM KCl, and AOX (10 μg ml^−1).

[3] = target: T2, bovine complex I (Bos taurus, UniProt P03887+P17694+P42026); experiment: NADH:decylubiquinone oxidoreduction by purified bovine complex I; conditions: purified B. taurus complex I, dQ; ± SE
T2 construct: Complex I from bovine heart were prepared; from tissue; host or cells: bovine heart mitochondria
Experimental: as §1

[4] = target: T1, mouse complex I; experiment: Extent of inhibition of isolated IACS-2858-bound mouse complex I prepared for cryo-EM; conditions: isolated inhibitor-bound enzyme after size exclusion, initial rate versus control without inhibitor; cryo-EM sample
Experimental: Complex I inhibited by IACS-2858 was prepared by a method adapted from that of Bridges et al. ([23]) for preparing mouse complex I inhibited by piericidin A1. C57BL/6 mice were euthanized by cervical dislocation in accord with the UK Animals (Scientific Procedures) Act 1986 (PPL: P6C97520A, approved by the local ethics committee and the UK Home Office), and mitochondrial membranes were prepared from heart tissue as described previously ([20]). Starting from membranes containing ~40 mg of total protein, the proteins were solubilized from the membranes by addition of 1% DDM (Glycon), and the mixture was centrifuged. […] The level of inhibition achieved was determined by comparing the initial rates of catalysis by the control and inhibited samples in buffer containing 20 mM tris-HCl (pH 7.5 at 32°C), 0.15% soy bean asolectin (Avanti Polar Lipids), and 0.15% CHAPS (Merck Chemicals Ltd.), using 200 μM dQ, with catalysis initiated by 200 μM NADH and monitored at 340 to 380 nm (ε = 4.81 mM^−1 cm^−1). […] The concentration of the peak fraction for the inhibited protein, eluting at ~1.65 ml, was estimated using a NanoDrop ultraviolet-visible spectrophotometer [ε280 = 0.2 (mg ml^−1)^−1], and the level of inhibition of the final eluted IACS-2858–treated sample was determined as above. […]

[5] = target: T3, complex I in bovine SMPs (Bos taurus, UniProt P03887+P17694+P42026); experiment: Reverse electron transport (succinate oxidation-driven NAD+ reduction) in bovine heart submitochondrial particles
T3 construct: Complex I from bovine heart were prepared; from tissue; host or cells: bovine heart mitochondria
Experimental: as §2

CS(=O)(=O)C1CCN(c2cccc(Cn3cc(-c4nc(-c5ccc(OC(F)(F)F)cc5)no4)ccc3=O)c2)CC1 [IACS-2858, 1-(3-(4-(Methylsulfonyl)piperidin-1-yl)benzyl)-5-(3-(4-(trifluoromethoxy)phenyl)-1,2,4-oxadiazol-5-yl)pyridin-2(1H)-one]
reduction of ubiquinone-1 in the presence of the inhibitor [1]: No activity was observed
IC50 [2]: 2.8 nM
IC50 [3]: 9.3 ± 0.7 nM
extent of inhibition [4]: 81 ± 5% and 81.3 ± 4.7%
IC50 ([5]; bovine SMPs, succinate oxidation-driven NAD+ reduction rate, ± SE): 3.1 ± 0.1 nM
inhibition of RET favoured over FET ([5]; bovine heart SMPs, RET versus FET): > 2 fold
